Data published in US7186784B2, “Phosphorus-containing carboxylic acid derivatives process for preparations thereof and flame retardant” (NOF Corporation, priority 2001, dated 2007).

What was measured:
[1] = Storage stability test in blend with epoxy resin YDPN 638; details: 1:1 by weight with epoxy resin YDPN 638, room temperature; for Stability Test: 30 days, viscosity increase observed visually
Excerpt: Then a visual observation was made about an increase in the viscosity thereof.

[2] = Dissolution on preparing the resin composition; format: physicochemical; details: 20.0 parts M-Acid with Epicote 828, CIC acid derivative and Nofcure-LC-1, mixed in a vial
Excerpt: An attempt was made to prepare a resin composition by mixing and agitating in a vial, 5.06 parts by weight of Epicote 828, 4.94 parts by weight of a derivative from CIC acid by n-propylvinyl ether, 20.0 parts by weight of unmodified M-Acid and 0.21 parts by weight of Nofcure-LC-1. However, the M-Acid was not dissolved, thereby forming non-homogeneous and opaque suspension.

Compound: CCOP(=O)(CC(CC(=O)O)C(=O)O)OCC (stereo not shown) [DEHP-ItaA]
- Stability Test: time before hardening (figure in parentheses) [1]: 5 min
- Stability Test [1]: Hardened

Compound: O=C(O)CCC(CC(=O)O)(C(=O)O)P(=O)(O)O (stereo not shown) [PBTC, 2-phosphonobutane-1,2,4-tricarboxylic acid]
- Stability Test: time before hardening (figure in parentheses) [1]: 15 min
- Stability Test [1]: Hardened

Compound: O=C(O)CC(CP(=O)(Oc1ccccc1)Oc1ccccc1)C(=O)O (stereo not shown) [Ref. Example. 7]
- Stability Test: time before hardening (figure in parentheses) [1]: 5 min
- Stability Test [1]: Hardened

Compound: O=C(O)CC(CP1(=O)Oc2ccccc2-c2ccccc21)C(=O)O (stereo not shown) [M-Acid]
- dissolution in resin composition [2]: not dissolved
